Laboratory results from PubChem BioAssay (NCI).
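Cells were grown in 96-well plates and exposed to each compound for 48 hours at five concentrations; endpoints were interpolated linearly between bracketing concentrations, or set to the highest concentration if not reached. TGI: total growth inhibition.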

How the values were obtained:
Experiment in all cases: NCI-60 cell line screen, 48 h
U251 CNS = system: U251 CNS
HCT-15 colon = system: HCT-15 colon
DMS 273 small cell lung = system: DMS 273 small cell lung
SNB-19 CNS = system: SNB-19 CNS
M14 melanoma = system: M14 melanoma
HL-60(TB) leukemia = system: HL-60(TB) leukemia
NCI-H522 lung = system: NCI-H522 lung
HT29 colon = system: HT29 colon
KM12 colon = system: KM12 colon
SF-268 CNS = system: SF-268 CNS
OVCAR-5 ovarian = system: OVCAR-5 ovarian
ACHN renal = system: ACHN renal
SNB-75 CNS = system: SNB-75 CNS
OVCAR-8 ovarian = system: OVCAR-8 ovarian
DLD-1 colon = system: DLD-1 colon
NCI-H23 lung = system: NCI-H23 lung
OVCAR-4 ovarian = system: OVCAR-4 ovarian
CAKI-1 renal = system: CAKI-1 renal
NCI-H460 lung = system: NCI-H460 lung
HCC-2998 colon = system: HCC-2998 colon
SK-MEL-2 melanoma = system: SK-MEL-2 melanoma
M19-MEL melanoma = system: M19-MEL melanoma
OVCAR-3 ovarian = system: OVCAR-3 ovarian
CCRF-CEM leukemia = system: CCRF-CEM leukemia
KM20L2 colon = system: KM20L2 colon
HCT-116 colon = system: HCT-116 colon
DMS 114 small cell lung = system: DMS 114 small cell lung
SF-295 CNS = system: SF-295 CNS
SN12C renal = system: SN12C renal
786-0 renal = system: 786-0 renal
IGROV1 ovarian = system: IGROV1 ovarian
SK-OV-3 ovarian = system: SK-OV-3 ovarian
COLO 205 colon = system: COLO 205 colon
RXF 393 renal = system: RXF 393 renal
SK-MEL-5 melanoma = system: SK-MEL-5 melanoma
EKVX NSCLC = system: EKVX NSCLC
A549 NSCLC = system: A549 NSCLC
NCI-H226 lung = system: NCI-H226 lung
UACC-257 melanoma = system: UACC-257 melanoma
K-562 leukemia = system: K-562 leukemia
LXFL 529 NSCLC = system: LXFL 529 NSCLC
SF-539 CNS = system: SF-539 CNS
HOP-18 NSCLC = system: HOP-18 NSCLC
UACC-62 melanoma = system: UACC-62 melanoma
UO-31 renal = system: UO-31 renal
HOP-62 NSCLC = system: HOP-62 NSCLC
RPMI-8226 leukemia = system: RPMI-8226 leukemia
MALME-3M melanoma = system: MALME-3M melanoma
SNB-78 CNS = system: SNB-78 CNS
TK-10 renal = system: TK-10 renal
SK-MEL-28 melanoma = system: SK-MEL-28 melanoma
LOX IMVI melanoma = system: LOX IMVI melanoma
MOLT-4 leukemia = system: MOLT-4 leukemia
SW-620 colon = system: SW-620 colon
SR leukemia = system: SR leukemia
XF 498 CNS = system: XF 498 CNS
HOP-92 NSCLC = system: HOP-92 NSCLC
A498 renal = system: A498 renal

Measured: TGI

OC12CC/C(=N/OCc3ccccc3)CC1c1ccccc12 (stereo not given)
not listed: SW-620 colon | SR leukemia | XF 498 CNS | HOP-92 NSCLC | A498 renal
> 100 µM: all other assays above

BrC1(Br)C2/C=C\CCCCC21 (stereo not given)
not listed: HCT-15 colon | M14 melanoma | SNB-75 CNS | DLD-1 colon | OVCAR-3 ovarian | DMS 114 small cell lung | SK-OV-3 ovarian | SK-MEL-5 melanoma | UACC-62 melanoma | UO-31 renal | RPMI-8226 leukemia
> 100 µM: all other assays above
